In US10960088B2, “Macrocycles, cobalt and iron complexes of same, and methods of making and using same” (The Research Foundation for The State University of New York, priority 2013, dated 2021):
Where “and” joins values, the source holds several entries; their conditions need not be identical. Identical values can stand only once. Entries after “also recorded” stand apart in the source; their conditions may differ.

Key:
[1] = Oxidation in air / reduction with dithionite followed by 1H NMR; type: physicochemical
[2] = Effective magnetic moment in solution from magnetic susceptibility (NMR); type: physicochemical; details: aqueous solution
Experimental: The effective magnetic moment (μeff) was calculated by using a previously known method. 5 mM Co^II complex and 5% t-butanol by volume was placed in a NMR insert while the outer NMR tube contained 5% by volume t-butanol in D2O. The μeff was calculated at 298 K (T) and monitored over a period of 72 hours using the following approach.
The mass susceptibility of solute (χg) was calculated by obtaining the observed frequency shift of the reference (Δf) in Hz, the spectrometer frequency (f) in Hz, the mass of the substance per cm^3 of solution (m), and the mass susceptibility of solvent D2O (χ0=−0.6466×10^−6 cm^3/g). The last term is neglected due to the minimal contribution to mass susceptibility of solute. The molar susceptibility (χm) is the product of χg multiplied by the molecular weight of the Co^II complex.
The effective magnetic moment was calculated by using a previously known method. In a typical experiment, oxygen-free solution of 8-20 mM [Co(TPT)]^2+ in deuterium oxide, pD 7.0, containing 5% tert-butanol by volume was placed in an NMR tube, while a reference solution of 5% tert-butanol (v/v) in deuterium oxide, pD 7.0, was placed into NMR tube insert. All solutions of [Co(TPT)]^2+ were purged with argon and kept in the absence of air. The effective magnetic moment (μeff) was calculated at 298 K (T) using the following equations 7-8. In these equations the mass susceptibility of solute (χg) was calculated by obtaining the observed frequency shift of the reference (Δf) in Hz, the spectrometer frequency (f) in Hz, the mass of the substance per cm^3 of the solution (m), and the mass susceptibility of deuterium oxide (χ0=−0.6466×10^−6 cm^3/g). The last term in eq. SI is neglected due to the minimal contribution to mass susceptibility of solute. The molar susceptibility (χm) is the product of χg multiplied by the molecular weight of the [Co(TPT)]Cl2 complex. Reported value of the effective magnetic moment was obtained by averaging of three independent experiments. χg=(−3Δf)/(4πfm)+χ0+[χ0(d0−ds)]/m eq. 7 μeff=2.84(χmT)^1/2 eq. 8

[3] = Exchange rate constants (omega plot)
Experimental: Exchange rate constants were calculated following a previously reported procedure. Measurements of on-resonance (Mz) and off-resonance (Mo) were acquired at different presaturation pulse powers between 350-1000 Hz (8-24 μT) applied for 4 seconds at 37° C. The exchange rate constant (kex) is calculated from the x-intercept from the plot of Mz/(Mo−Mz) against 1/ω1^2 (ω1 in rad/s). The rate constant, kex, is converted into units of s^−1. Samples contained 10 mM Co^II complex, 20 mM HEPES pH 7.4, and 100 mM NaCl.
The exchange rate constants were calculated by using a previously reported procedure. The magnetization of the on-resonance (Mz) and off-resonance (Mo) were acquired at different pre-saturation pulse powers between 350-1090 Hz applied for 4 seconds. To calculate the exchange rate constant (kb), the x-intercept (−1/kb^2) was obtained from the plot of Mz/(Mo−Mz) against 1/ω1^2 (ω1 in rad/s). Samples contained 16 mM [Co(TPT)]Cl2, 200 mM NaCl, and 40 mM MES or HEPES at pH 6.4-7.5. Measurements were carried out at 37° C.

[4] = Cyclic voltammetry; type: physicochemical; details: versus NHE, in water, 1 M KCl
Experimental: Cyclic voltammograms were obtained using a Princeton Applied Research Model 263A Potentiostat/Galvanostat and PowerSuite software program. CHI 104 Glassy Carbon Disk working electrode from CH Instruments, Inc. (Austin, Tex.) was used. Cyclic Voltammetry. […] (FIG. 6). The external ferrocyanide standard with Eo (Fe(III)/Fe(II))=303±10 mV vs. NHE contained 1.0 mM K4Fe(CN)6 and 1.00 M KCl under argon. The redox potential of the complex calculated based on a NHE reference using eq. 6: E^o(vs. NHE)=E^o(vs. Ag/AgCl)+167 mV, eq. 6 Determination of Magnetic Moment.

[5] = Kinetics of Co(II) oxidation and Co(III) reduction by UV-vis; type: physicochemical
Description: Materials and methods. Instrumentation. Varian Inova 400 MHz and Inova 500 MHz NMR spectrometers were used to collect ^1H NMR spectra. ^13C NMR spectra were acquired using a Varian Mercury 300 MHz NMR spectrometer operating at 75 MHz. The measurements of magnetic susceptibility and CEST data were acquired on Varian Inova 500 MHz NMR spectrometer. Temperature of samples during ^1H NMR and CEST experiments was controlled with FTS Systems TC-84 Kinetics Air Jet Temperature Controller. A Thermo Scientific Orion 9826BN NMR micro pH electrode connected to a SympHony SB20 pH meter and the Orion 8115BNUWP Ross-ultra semi micro pH electrode connected to a Titrino 702 pH meter were used for pH measurements. ThermoFinnigan LCQ Advantage IonTrap LC/MS equipped with a Surveyor HPLC system was used to collect mass spectral data. Absorbance spectra of [Co(TPT)]^2+ and [Co(TPT)]^3+, together with the kinetic experiments for the reduction of Co(III) with L-ascorbic acid or sodium dithionite, and for the oxidation of Co(II) with oxygen or sodium peroxydisulfate were measured with a Beckman-Coulter DU 800 UV-vis Spectrophotometer equipped with a Peltier Temperature Controller. Kinetic experiments for the oxidation of Co(II) complex were performed after equilibration of the solutions with a mixture containing 5%, 10%, and 20% of oxygen in nitrogen followed by addition of [Co(TPT)]^2+ in the minimal volume of solvent. All experiments for the reduction of […] were performed under an inert atmosphere of argon. […]

[6] = Redox potentials of iron complexes (no method given); type: physicochemical

effective magnetic moment [2] [BM] | reduction potential [4] | redox potential [6] [mV] | SMILES | stability towards oxidation in air (in words) [1] | rate constant for proton exchange ([3]; pH 6.4, 37° C.) | rate constant for proton exchange ([3]; pH 6.9, 37° C.) | rate constant for proton exchange ([3]; pH 7.5, 37° C.) | second-order rate constant for reduction by dithionite ([5]; 200 mM NaCl, 40 mM HEPES, pH 7.0, 37° C.) [M⁻¹ s⁻¹] | second-order rate constant for oxidation by oxygen ([5]; 200 mM NaCl, 40.0 mM HEPES, pH 7.1, 25° C.) [M⁻¹ s⁻¹] | rate constant for oxidation of the Co(II) complex ([5]; ambient pressures of oxygen) [s⁻¹] | rate constant for reduction of Co(III) complex ([5]; excess dithionate) [s⁻¹] | rate constant for oxidation, extrapolated ([5]; hypoxic conditions, 10 mm Hg, 17 μM O2) [s⁻¹] | rate constant for oxidation, extrapolated ([5]; oxygen 100 mm Hg (0.17 mM O2), arterial blood) [s⁻¹] | rate constant for oxidation of the Co(II) complex ([5]; partial pressures of oxygen of 5%, in 1/s)
 |  |  | [Fe+2].c1cc(CN2CCN(Cc3cc[nH]n3)CCN(Cc3cc[nH]n3)CC2)n[nH]1 [[Fe(TPT)]^2+] | readily oxidize |  |  |  |  |  |  |  |  |  | 
5.7±0.2 | −107 mV and −107±11 mV |  | [Co+2].c1cc(CN2CCN(Cc3cc[nH]n3)CCN(Cc3cc[nH]n3)CC2)n[nH]1 [[Co(TPT)]^2+] | readily oxidize; also recorded: oxidizes in air to the Co(III) form | 6,200 s^−1 | 9,200 s^−1 | 12,400 s^−1 | 0.24 | 0.43 | 5e-06 | 4e-05 | 7.3e-06 | 7.3e-05 | 2×10^−6
 |  | 195 | O=C([O-])CN1CCN(CC(=O)[O-])CCN(CC(=O)[O-])CC1.[Fe+3] [Fe(NOTA)] |  |  |  |  |  |  |  |  |  |  | 
